Experiment [1] has as its system HT-29 human colon cancer cells. As to the kind of experiment: HT-29 colon tumor growth in CD-1 nude mice. In kind it is in vivo. Particulars: SEQ ID NO:1 10 mg/kg every other day. On the procedure:
A. HT-29 human colon cancer cells (3×10^6 cells in 100 μl of PBS) were subcutaneously injected into the right flank of 6-7 weeks old female CD-1 nude mice. After the size of tumor reached an approximate volume of 50 mm^3, 4 days post tumor cell injection, SEQ ID NO:1 was administered by bolus infusion into the tail vein every other day at 10 mg/kg. Control animals received saline alone for the same period. Antitumor effect of SEQ ID NO:1 was further compared to that of mitomycin C alone or that of SEQ ID NO:1 in combination with mitomycin C. Mitomycin C was administered intravenously at days 4, 11 and 18 with a dose of 3.5 mg/kg/week, one hour after the treatments with SEQ ID NO:1. All treatments were stopped at day 22. A day after the last treatment, tumors were excised from the animals and their weights were measured (FIG. 13A). […] The delay in tumor growth achieved with SEQ.
B. HT-29 human colon cancer cells (3×10^6 cells in 100 μl of PBS) were subcutaneously injected into the right flank of 5-6 week old female CD-1 nude mice. After the size of tumor reached an approximate volume of 100 mm^3, 7 days post tumor cell injection, SEQ ID NO:1 was administered by bolus infusion into the tail vein every other day at 10 mg/kg. Control animals received saline alone for the same period. Antitumor effect of SEQ ID NO:1 was further compared to that of CPT-11 alone or that of SEQ ID NO:1 in combination with CPT-11. CPT-11 was administered intraperitoneally for 5 days in a row from day 7-12 with a dose of 20 mg/kg in 100 μl saline. All treatments were stopped at day 32. A day after the last treatment, tumors were excised from the animals and their weights were measured (FIG. 13B).

The test system of experiment [2] is MDA-MB435-To.1 human Taxol-resistant breast adenocarcinoma cells. As to the kind of experiment: Taxol-resistant breast adenocarcinoma MDA-MB435-To.1 growth in SCID mice. The experiment is classed as in vivo. On the procedure:
MDA-MB435-To.1 human Taxol-resistant breast adenocarcinoma cells (4×10^6 cells in 100 μl of PBS) were injected into the fat pad (inside of right leg) of 6-7 weeks old female SCD mice. After the size of tumor reached an approximate volume of 100 mm^3, 20 days post tumor cell injection, SEQ ID NO:1 was administered by bolus infusion into the tail vein every other day at 10 mg/kg 15 times. Control animals received saline alone for the same period. Antitumor effect of SEQ ID NO:1 was further compared to that of Cisplatin or Taxol alone (FIG. 15A). Cisplatin was administered intravenously once a week for four weeks at a dose of 4 mg/kg. Taxol was administered intravenously once a week for four weeks at a dose of 20 mg/kg. Antitumor activities were estimated by the inhibition of tumor volume, which was measured with caliper (FIG. 15B). Each point represents mean tumor volume calculated from 9-10 animals per experimental group. […] As expected, treatment with Taxol during the same period was ineffective against Taxol-resistant tumor.
MDA-MB435-To.1 human Taxol-resistant breast adenocarcinoma cells (4×10^6 cells in 100 μl of PBS) were injected into the fat pad (inside of right leg) of 6-7 weeks old female CB-17 SCID mice. After the size of tumor reached an approximate volume of 100 mm^3, 17 days post tumor cell injection, SEQ ID NO:1 was administered by bolus infusion into the tail vein every other day at 10 mg/kg. Control animals received saline alone for the same period. Antitumor effect of SEQ ID NO:1 was compared to that of Cisplatin alone and in combination. Cisplatin was administered intravenously once a week for four weeks at a dose of 4 mg/kg. Antitumor activities were estimated by the inhibition of tumor volume, which was measured with caliper (FIG. 15B). Each point represents mean tumor volume calculated from 10 animals per experimental group. At the end of the study the animals were sacrificed and tumors weighed (FIG. 15C).

The subject of experiment [3] is MDA-CDDP-S4 human in vivo-selected Cisplatin-resistant breast adenocarcinoma cells. As to the kind of experiment: Cisplatin-resistant breast adenocarcinoma MDA-CDDP-S4 growth in SCID mice. Particulars: SCID mice, fat pad; SEQ ID NO:1 10 mg/kg every other day; Cisplatin 4 mg/kg, Taxol 10 mg/kg i.v. weekly for three weeks. On the procedure:
MDA-CDDP-S4 human in vivo-selected Cisplatin-resistant breast adenocarcinoma cells MDA231/CDDPs4) (4×10^6 cells in 100 μl of PBS) were injected into the fat pad (inside of right leg) of 6-7 weeks old female SCID mice. After the size of tumor reached an approximate volume of 100 mm^3, 7-9 days post tumor cell injection, SEQ ID NO:1 was administered by bolus infusion into the tail vein every other day at 10 mg/kg. Control animals received saline alone for the same period. Antitumor effect of SEQ ID NO:1 was further compared to that of Cisplatin or Taxol alone (FIG. 14A) and in combination as indicated in the FIGS. 14B, 14C and 14D. Cisplatin was administered intravenously once a week for three weeks at a dose of 4 mg/kg. Taxol was administered intravenously once a week for three weeks at a dose of 10 mg/kg. Antitumor activities were estimated by the inhibition of tumor volume, which was measured with caliper and each point represents mean tumor volume calculated from 10 animals per experimental group (FIG. 14C). At the end of the study animals were sacrificed, tumor weights taken and mean tumor weights are indicated. […] As expected, treatment with Cisplatin during the same period was ineffective against Cisplatin-resistant tumor.

The test system of experiment [4] is DU145 human prostatic cancer cells. Briefly: DU145 prostate tumor growth in SCID mice. The experiment is classed as in vivo. On the procedure:
DU145 human prostatic cancer cells (1×10^7 cells in 100 μl of PBS) were subcutaneously injected into the right flank of 6-7 week old male SCID mice. After the size of the tumors reached an approximate volume of 50 mm^3, 13 days post tumor cell injection, SEQ ID NO:1 was administered by bolus infusion into the tail vein every other day at 10 mg/kg. Control animals received saline alone for the same period. Treatments lasted for 30 days thereafter. Antitumor activities were estimated by the inhibition of tumor volume, which was measured with a caliper on nine different occasions over 30-day period. Each point represents mean tumor volume calculated from 5 animals per experimental group.
In both experiments, DU145 human prostatic cancer cells (1×10^7 cells in 100 μl of PBS) were subcutaneously injected into the right flank of 6-7 weeks old male SCID mice. After the size of tumor reached an approximate volume of 50 mm^3, 13 (upper panel) or 11 (lower panel) days post tumor cell injection, SEQ ID NO:1 was administered by bolus infusion into the tail vein every other day at 10 mg/kg 15 times (upper panel) or 14 times (lower panel), respectively. Control animals received saline alone for the same period. Antitumor effect of SEQ ID NO:1 was further compared to that of mitoxantrone (novantrone®) alone or in combination. Mitoxantrone was administered intravenously once at the beginning of the treatments at a dose of 2 mg/kg (upper panel) or once a week for four weeks at a reduced dose of 0.8 mg/kg (lower panel). All treatments were stopped at day 42 (upper panel) or 38 (lower panel), respectively. A day after the last treatment, tumors were excised from the animals and their weights were measured.

Experiment [5] relates to Human taxol-resistant promyelocytic leukemia cells (HL-60). Briefly: Taxol-resistant promyelocytic leukemia (HL-60) growth in SCID mice. The experiment is classed as in vivo. Particulars: SEQ ID NO:1 10 mg/kg i.v. every other day, taxol 10 mg/kg i.p. once a week. As for the experimental part: Human taxol-resistant promyelocytic leukemia cells (HL-60) (7×10^6 cells in 100 μl of PBS) were injected into the right flank of 6-7 weeks old female SCID mice. After the size of tumor reached an approximate volume of 100 mm^3, 10 days post tumor cell injection, SEQ ID NO:1 was administered by bolus infusion into the tail vein every other day at 10 mg/kg. Control animals received saline alone for the same period. The anti-tumor effect of SEQ ID NO:1 was further compared to that of taxol. Taxol was administered i.p. once a week at a dose of 10 mg/kg. Anti-tumor activity was estimated by the inhibition of tumor volume, which was measured with caliper (FIG. 17A). Each point represents mean tumor volume calculated from 10 animals per experimental group. In addition animals were sacrificed and tumor weights taken at the end of the study.

[6] abbreviates: first experiment, start 20 days post injection, SEQ ID NO:1 10 mg/kg 15 times, Cisplatin 4 mg/kg, Taxol 20 mg/kg weekly for four weeks.

Turning to `CO[C@@]12[C@H](COC(N)=O)C3=C(C(=O)C(C)=C(N)C3=O)N1C[C@@H]1N[C@@H]12` [mitomycin C, reference compound], the “tumor weight / tumor growth” value in experiment [1] (FIG. 13A, mitomycin C 3.5 mg/kg/week i.v., stopped day 22) is “inhibitory effects”.

For `N.N.[Cl][Pt][Cl]` [Cisplatin, reference compound], the “tumor weight / tumor growth” value in experiment [2] (setting [6]) was “inhibitory effects”; in experiment [2] (second experiment, CB-17 SCID mice, start 17 days post injection, SEQ ID NO:1 10 mg/kg every other day, Cisplatin 4 mg/kg weekly), “inhibitory effects”; in experiment [3] it was “ineffective”.

As to `O=C1c2c(O)ccc(O)c2C(=O)c2c(NCCNCCO)ccc(NCCNCCO)c21` [mitoxantrone, reference compound], the “tumor weight / tumor growth” value is “delay of tumor growth” in experiment [4] (lower panel FIG. 2, SEQ ID NO:1 10 mg/kg every other day 14 times, mitoxantrone 0.8 mg/kg once a week for four weeks) and “inhibitory effects” in experiment [4] (upper panel FIG. 2, SEQ ID NO:1 10 mg/kg every other day 15 times, mitoxantrone 2 mg/kg i.v. once, vs saline).

With `CC(=O)O[C@H]1C(=O)[C@@]2(C)[C@H]([C@H](OC(=O)c3ccccc3)[C@]3(O)C[C@H](OC(=O)[C@H](O)[C@@H](NC(=O)c4ccccc4)c4ccccc4)C(C)=C1C3(C)C)[C@]1(OC(C)=O)CO[C@@H]1C[C@@H]2O` [Taxol, Paclitaxel, reference compound], the figures for the “tumor weight / tumor growth” value in experiment [2] (setting [6]) and in experiment [3] were “ineffective” and “inhibitory effects”, respectively. Besides, the “tumor growth / tumor weight” value in experiment [5] was “no effect on tumor growth or weight”.

Take `CCc1c2c(nc3ccc(OC(=O)N4CCC(N5CCCCC5)CC4)cc13)-c1cc3c(c(=O)n1C2)COC(=O)[C@]3(O)CC` [CPT-11, Irinotecan, reference compound]: the “tumor weight / tumor growth” value in experiment [1] (FIG. 13B, CPT-11 20 mg/kg i.p. 5 days, stopped day 32) is reported as “inhibitory effects”.

The values are drawn from patent US20070274947A1, “Antisense Oligonucleotides Directed to Ribonucleotide Reductase R1 and Uses Thereof in the Treatment of Cancer” (priority 2003, published 2007).
